The values that follow come from patent publication US20250375436A1, “SERDEXMETHYLPHENIDATE FOR TREATMENT OF IDIOPATHIC HYPERSOMNIA” (ZEVRA THERAPEUTICS, INC., priority 2024, published 2025).

As a reminder, the CL/F is the apparent clearance, not corrected for the fraction that reaches the circulation.

The nature of series [1]: Plasma PK of d-MPH after single oral dose administrations of 240, 360 and 480 mg SDX Cl.
Another series concerns Patients with IH. The note with it: cited from earlier work.

Turning to `COC(=O)[C@H](c1ccccc1)[C@H]1CCCCN1C(=O)OC[n+]1cccc(C(=O)N[C@@H](CO)C(=O)O)c1.[Cl-]` [SDX Cl, 3-[[[(1S)-1-carboxy-2-hydroxyethyl]amino]carbonyl]-1-[[[[(2R)-2-[(1R)-2-methoxy-2-oxo-1-phenylethyl]-1-piperidinyl]carbonyl]oxy]methyl]pyridinium chloride], the apparent clearance (CL/F) is 384 L/h in series [1] (single oral dose 240 mg SDX Cl, N = 14); 387 L/h in series [1] (single oral dose 360 mg SDX Cl, N = 10); 297 L/h in series [1] (single oral dose 480 mg SDX Cl, N = 7).
Regarding `O=C(O)CCCO` [oxybate], in the series on Patients with IH (in vivo), the TEAE anxiety is reported as 11%, the TEAE dizziness is listed as 12%, the TEAE headache is 18% and the TEAE nausea is given as 22 % of subjects. For the same molecule, in the series on Patients with IH (in vivo), the TEAE vomiting was 11%. Further, the “Patients reporting worsening symptoms (PGI-C scale)” value in the series on Patients with IH (oxybate-treated patients) was 21%.
